Key:
[1] = molecular target: T1, membrane-bound aminopeptidase activity in the CA1 (Rattus norvegicus, UniProt P15684); format: biochemical
T1 sequence (P15684 2-965): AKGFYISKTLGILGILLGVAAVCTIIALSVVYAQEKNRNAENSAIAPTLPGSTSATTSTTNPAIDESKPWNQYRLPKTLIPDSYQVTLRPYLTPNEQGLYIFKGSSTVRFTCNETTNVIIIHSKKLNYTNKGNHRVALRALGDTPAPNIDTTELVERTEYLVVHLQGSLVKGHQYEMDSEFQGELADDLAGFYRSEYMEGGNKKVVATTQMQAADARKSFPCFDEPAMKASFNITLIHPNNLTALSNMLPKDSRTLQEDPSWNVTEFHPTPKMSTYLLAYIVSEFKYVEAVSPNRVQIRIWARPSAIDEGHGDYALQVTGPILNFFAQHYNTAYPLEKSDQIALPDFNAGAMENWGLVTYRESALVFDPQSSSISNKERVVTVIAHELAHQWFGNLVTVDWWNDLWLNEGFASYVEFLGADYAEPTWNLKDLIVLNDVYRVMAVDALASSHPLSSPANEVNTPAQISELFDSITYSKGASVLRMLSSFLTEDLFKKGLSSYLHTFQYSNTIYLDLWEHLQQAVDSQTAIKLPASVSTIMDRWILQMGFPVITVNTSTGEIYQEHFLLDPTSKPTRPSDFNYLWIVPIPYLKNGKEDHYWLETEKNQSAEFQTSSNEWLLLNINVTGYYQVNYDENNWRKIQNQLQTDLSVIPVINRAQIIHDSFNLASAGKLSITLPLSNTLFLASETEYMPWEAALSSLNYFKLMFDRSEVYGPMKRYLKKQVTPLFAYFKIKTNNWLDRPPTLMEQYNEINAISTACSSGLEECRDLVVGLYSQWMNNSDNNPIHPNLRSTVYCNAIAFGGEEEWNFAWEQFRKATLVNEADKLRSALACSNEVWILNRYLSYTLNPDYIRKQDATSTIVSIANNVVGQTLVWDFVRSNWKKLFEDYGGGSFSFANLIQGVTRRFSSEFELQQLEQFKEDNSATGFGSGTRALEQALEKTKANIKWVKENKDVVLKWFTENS

[2] = molecular target: T2, membrane-bound aminopeptidase activity in the CA3 (Rattus norvegicus, UniProt P15684); format: biochemical
T2 sequence (P15684 2-965): T1 sequence (P15684 2-965)

[3] = molecular target: puromycin-sensitive aminopeptidase (PSA, EC 3.4.11.14); details: cited from earlier work
[4] = molecular target: aminopeptidase N (APN, EC 3.4.11.2); details: cited from earlier work
[5] = test system: ectopeptidases in whole OHSCs; details: EO sampling; cited from earlier work

Row | SMILES | Ki [1] [µM] | Ki [2] [µM] | Ki [3] [µM] | Ki [4] [µM] | effect on hydrolysis of exogenously applied YGGFL [5]
1 | CC(C)C[C@H](NC(=O)[C@@H](O)[C@H](N)Cc1ccccc1)C(=O)O [bestatin] | 12 ± 9 | 11 ± 7 | 0.5 | – | –
2 | COc1ccc(C[C@H](N)C(=O)N[C@H]2[C@@H](O)[C@H](n3cnc4c(N(C)C)ncnc43)O[C@@H]2CO)cc1 [puromycin] | – | – | 1 | 100 | little to no effect
